# Data: patent US10336803B2, “Insulin secreting polypeptides” (Mayo Foundation for Medical Education and Research, priority 2013, dated 2019)
# No end group written: not given here.
# Experiments:
# [1] = test system: normal dogs; assay: Chimeric polypeptide intravenous infusion in normal dogs: blood glucose, plasma insulin, plasma cGMP; type: in vivo, dog; conditions: normal dogs (n=2), intravenous infusion 10 or 100 pmol/kg/minute for 45 minutes; for plasma insulin: versus base line (FIG. 7); for plasma glucose: versus base line (FIG. 8); for plasma cGMP: versus base line (FIG. 9)
# [2] = target: T1, GC-A particulate guanylate cyclase receptors (Homo sapiens, UniProt P16066); assay: Cell cGMP assay in HEK293 cells stably transfected with GC-A; type: cell-based; conditions: 10^−10 M, 10^−8M, or 10^−6M polypeptide for 10 minutes (FIGS. 14, 15)
# T1 construct: expressed in transfected cells; host or cells: HEK293
# T1 sequence (P16066 33-1061): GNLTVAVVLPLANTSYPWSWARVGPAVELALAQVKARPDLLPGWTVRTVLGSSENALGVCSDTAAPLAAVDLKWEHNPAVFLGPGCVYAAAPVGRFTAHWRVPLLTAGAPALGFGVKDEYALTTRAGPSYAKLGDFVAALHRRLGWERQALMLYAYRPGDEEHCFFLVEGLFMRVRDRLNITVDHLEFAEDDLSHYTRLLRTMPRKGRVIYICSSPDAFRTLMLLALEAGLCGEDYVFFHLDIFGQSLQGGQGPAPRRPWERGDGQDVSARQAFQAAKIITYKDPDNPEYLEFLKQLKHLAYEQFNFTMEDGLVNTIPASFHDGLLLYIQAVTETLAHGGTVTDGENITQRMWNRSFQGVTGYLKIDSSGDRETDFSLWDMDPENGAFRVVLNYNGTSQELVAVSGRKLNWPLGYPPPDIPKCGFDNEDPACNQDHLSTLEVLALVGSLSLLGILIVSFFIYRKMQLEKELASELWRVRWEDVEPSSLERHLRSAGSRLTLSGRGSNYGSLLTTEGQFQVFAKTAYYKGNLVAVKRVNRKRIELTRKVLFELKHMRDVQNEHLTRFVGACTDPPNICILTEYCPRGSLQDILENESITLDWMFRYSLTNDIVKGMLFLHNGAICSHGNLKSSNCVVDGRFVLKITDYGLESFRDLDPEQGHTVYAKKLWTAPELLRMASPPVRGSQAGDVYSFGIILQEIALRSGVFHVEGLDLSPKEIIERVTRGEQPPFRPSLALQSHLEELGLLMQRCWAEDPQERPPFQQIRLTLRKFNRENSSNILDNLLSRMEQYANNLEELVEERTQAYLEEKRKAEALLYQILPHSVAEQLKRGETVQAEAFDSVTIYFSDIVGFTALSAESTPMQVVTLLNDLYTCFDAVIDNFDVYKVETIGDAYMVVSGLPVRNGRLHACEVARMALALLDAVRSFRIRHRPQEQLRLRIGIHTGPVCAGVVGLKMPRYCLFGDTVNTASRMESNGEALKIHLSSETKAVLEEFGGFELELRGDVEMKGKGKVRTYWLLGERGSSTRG
# [3] = target: T2, GC-B particulate guanylate cyclase receptors (Homo sapiens, UniProt P20594); assay: Cell cGMP assay in HEK293 cells stably transfected with GC-B; type: cell-based; conditions: 10^−10 M, 10^−8M, or 10^−6M polypeptide for 10 minutes (FIGS. 14, 15)
# T2 construct: expressed in transfected cells; host or cells: HEK293
# T2 sequence (P20594 23-1047): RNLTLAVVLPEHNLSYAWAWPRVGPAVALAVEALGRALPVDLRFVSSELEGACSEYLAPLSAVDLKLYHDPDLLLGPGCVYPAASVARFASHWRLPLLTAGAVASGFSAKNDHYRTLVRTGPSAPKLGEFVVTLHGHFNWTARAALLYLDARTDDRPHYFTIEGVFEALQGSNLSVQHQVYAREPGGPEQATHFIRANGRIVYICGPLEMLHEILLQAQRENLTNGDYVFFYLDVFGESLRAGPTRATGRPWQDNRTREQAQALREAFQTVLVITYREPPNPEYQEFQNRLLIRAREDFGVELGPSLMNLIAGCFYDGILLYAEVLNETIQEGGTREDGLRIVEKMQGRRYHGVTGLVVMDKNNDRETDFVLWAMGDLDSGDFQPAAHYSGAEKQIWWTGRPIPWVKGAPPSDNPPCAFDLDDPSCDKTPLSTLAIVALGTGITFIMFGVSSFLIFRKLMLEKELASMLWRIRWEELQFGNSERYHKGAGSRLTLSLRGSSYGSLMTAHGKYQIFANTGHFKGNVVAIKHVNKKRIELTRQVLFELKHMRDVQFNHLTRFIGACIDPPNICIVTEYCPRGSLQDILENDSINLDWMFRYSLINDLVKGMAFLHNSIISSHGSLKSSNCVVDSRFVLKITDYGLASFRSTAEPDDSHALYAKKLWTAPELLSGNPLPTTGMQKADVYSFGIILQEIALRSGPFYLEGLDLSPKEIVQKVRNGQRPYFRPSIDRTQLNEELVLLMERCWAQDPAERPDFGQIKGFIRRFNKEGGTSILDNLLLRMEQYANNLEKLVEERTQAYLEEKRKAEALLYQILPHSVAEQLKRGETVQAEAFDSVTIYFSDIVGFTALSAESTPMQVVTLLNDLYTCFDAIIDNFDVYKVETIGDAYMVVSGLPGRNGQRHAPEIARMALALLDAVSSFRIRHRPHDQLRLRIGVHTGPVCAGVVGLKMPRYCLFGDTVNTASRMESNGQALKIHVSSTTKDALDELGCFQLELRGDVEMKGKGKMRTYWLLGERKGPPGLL
# [4] = test system: diabetic rats; assay: Chronic CRRL-094 ISP-NP subcutaneous pump treatment of diabetic rats; type: in vivo, male Wistar rats; conditions: ALZET pumps subcutaneously 1 pmol/kg/minute
# Source text: Three groups of male Wistar rats were used: (1) normal non-diabetic control rats, (2) diabetic control rats, and (3) diabetic rats treated with CRRL-094 ISP-NP. Two months after induction of diabetes, ALZET pumps (obtained from DURECT Corporation, ALZET Osmotic Pumps, P.O. Box 530, Cupertino, Calif.; Model 1007D) filled with CRRL-094 ISP-NP in saline (dose=1 pmol/kg/minute) or saline as control were serially implanted subcutaneously every 14 days over the course of one month. After four weeks of treatment, blood glucose levels, plasma insulin levels, body weight, plasma and urine cGMP levels, and left ventricular hypertrophy were measured. Blood glucose levels and body weight also were measured after two weeks of treatment.
# [5] = test system: normal rats; assay: CRRL-090 ISP intravenous infusion in normal rats: blood glucose and plasma insulin; type: in vivo, rat; conditions: 1 pmol/kg/minute for 210 minutes intravenous infusion
# Experimental: CRRL-090 ISP was synthesized by direct protein synthesis and tested for biological activity in normal rats as follows. Two groups of normal rats were used. The first group included five normal rats, which were administered normal saline. The second group included seven normal rats, which were administered CRRL-090 (1 pmol/kg/minute for 210 minutes). Both administrations were via intravenous infusion.
# [6] = test system: diabetic rats (streptozotocin); assay: CRRL-090 ISP chronic subcutaneous pump treatment of streptozotocin diabetic rats; type: in vivo, male Wistar rats
# Experimental: CRRL-090 ISP was synthesized by direct protein synthesis and tested for biological activity in diabetic rats as follows. Three groups of male Wistar rats (six rats per group) were used: normal control group, diabetic control group, and diabetic group treated with CRRL-090 ISP. One dose of streptozotocin was administered intraperitoneally to induce diabetes in the rats of the diabetic control group and diabetic group treated with CRRL-090 ISP. Two months after induction of diabetes, ALZET pumps (obtained from DURECT Corporation, ALZET Osmotic Pumps, P.O. Box 530, Cupertino, Calif.; Model 1007D) configured to release 0.1 μg/kg/minute of CRRL-090 ISP or saline as control were serially implanted subcutaneously every 14 days over the course of one month (2 pumps, one on day 0 and another on day 14). Cardiac function was assessed by echocardiography, neurohormones were measured by radioimmunoassays. Fibrosis was determined by picrosirius red staining.
# [7] = test system: normal rats; assay: Chimeric polypeptide infusion in normal rats: blood glucose and plasma insulin; type: in vivo, rat; conditions: IV infusion 1 pmol/kg/minute for 210 minutes
# [8] = after four weeks, compared to diabetic rats treated with saline (FIG. 19)
Substance,plasma insulin [1],plasma glucose [1],plasma cGMP [1],activation of GC-A receptors (cGMP levels) [2],activation of GC-B receptors (cGMP levels) [3],"plasma insulin ([4]; after four weeks, compared to diabetic rats treated with saline (FIG. 17))","plasma cGMP [4, 8]","urine cGMP [4, 8]","left ventricular hypertrophy (Left Ventricular Mass, LVMd) ([4]; after four weeks, compared to diabetic rats treated with saline (FIG. 20))","blood glucose ([4]; four weeks, compared to diabetic rats treated with saline (FIG. 16))","body weight ([4]; four weeks, compared to diabetic rats treated with saline (FIG. 18))",blood glucose levels ([5]; compared to control rats that received saline (FIG. 1)),plasma insulin ([5]; compared to control rats that received saline (FIG. 2)),"blood glucose levels ([6]; ALZET pumps subcutaneously 0.1 μg/kg/minute for one month starting two months after streptozotocin, compared to diabetic controls (FIG. 3))","plasma insulin levels ([6]; ALZET pumps subcutaneously 0.1 μg/kg/minute for one month, three months after streptozotocin, compared to diabetic controls (FIG. 4))","glomerular filtration rate (GFR) ([6]; ALZET pumps subcutaneously 0.1 μg/kg/minute for one month, three months after streptozotocin, compared to diabetic controls (FIG. 5))","left ventricular hypertrophy (LV/BW ratio) ([6]; ALZET pumps subcutaneously 0.1 μg/kg/minute for one month, three months after streptozotocin, compared to diabetic controls (FIG. 6))","plasma insulin ([7]; compared to placebo control rats (FIGS. 10, 12))","blood glucose ([7]; compared to placebo control rats (FIGS. 11, 13))"
HGEGT-FTSDSEAFIWLGRRMDRIGLSKGCFGLKLDRIGSMSGLGCKVLRRH (HGEGTFTSDSEAFIWLGRRMDRIGLSKGCFGLKLDRIGSMSGLGCKVLRRH) [CRRL-094 ISP-NP],increase in plasma insulin,reduction in plasma glucose,increase,activated both the GC-A and GC-B receptors,activated both the GC-A and GC-B receptors,increased plasma insulin,increased plasma and urine cGMP,increased plasma and urine cGMP,reduced left ventricular hypertrophy,reduced blood glucose,reduced body weight,–,–,–,–,–,–,–,–
HGEGTFTSDSEAFIWLGR-amide (HGEGTFTSDSEAFIWLGR-NH2) [CRRL-090 ISP],–,–,–,–,–,–,–,–,–,–,–,lower blood glucose levels,increased plasma insulin,reduced blood glucose levels,increased plasma insulin levels,increased glomerular filtration rate,less left ventricular hypertrophy,–,–
SPKMVQG-SGCFGRKMDRISSSSGLGCKVLRRHGEGTFTSDSEAFIWLGR [CRRL-092 ISP-NP],increase in plasma insulin,reduction in plasma glucose,increase,activated the GC-A receptors,but not the GC-B receptors,–,–,–,–,–,–,–,–,–,–,–,–,increased plasma insulin,lower blood glucose
